Active and inactive are the calls of the source. No cut-off for these calls is given here.
Tests used:
MDA-MB-468 [1] = assay: Cytotoxicity against human MDA-MB-468 cells assessed as cell viability measured after 7 days by CCK-8 assay; type: functional; conditions: MDA-MB-468, 168 h, time 7 day
[2] = target: T1, von Hippel-Lindau disease tumor suppressor/Protein arginine N-methyltransferase 5 (Homo sapiens, UniProt O14744+P40337); assay: PROTAC activity at PRMT5/VHL in human MDA-MB-468 cells assessed as degradation measured at 0.5 uM after 72 hrs by Western blot analysis; type: cell-based
[3] = target: T2, von Hippel-Lindau disease tumor suppressor/Methylosome protein WDR77 (Homo sapiens, UniProt Q9BQA1+P40337); assay: PROTAC activity at MEP50/VHL in human MDA-MB-468 cells assessed as degradation measured at 0.5 uM after 72 hrs by Western blot analysis; type: cell-based
[4] = target: T1, von Hippel-Lindau disease tumor suppressor/Protein arginine N-methyltransferase 5; assay: PROTAC activity at PRMT5/VHL in human PC-3 cells assessed as degradation at 0.5 to 5 uM after 7 hrs by Western blot analysis; type: cell-based; conditions: dose 0.5-5 µM
[5] = target: T2, von Hippel-Lindau disease tumor suppressor/Methylosome protein WDR77; assay: PROTAC activity at MEP50/VHL in human MDA-MB-468 cells assessed as degradation measured at 5 uM after 72 hrs by Western blot analysis; type: cell-based
[6] = target: T2, von Hippel-Lindau disease tumor suppressor/Methylosome protein WDR77; assay: PROTAC activity at MEP50/VHL in human PC-3 cells assessed as degradation at 0.5 to 5 uM after 7 hrs by Western blot analysis; type: cell-based; conditions: dose 0.5-5 µM
[7] = target: T1, von Hippel-Lindau disease tumor suppressor/Protein arginine N-methyltransferase 5; assay: PROTAC activity at PRMT5/VHL in human MDA-MB-468 cells assessed as degradation measured at 5 uM after 72 hrs by Western blot analysis; type: cell-based
MDA-MB-468 [8] = assay: Inhibition of sDMA (symmetric dimethylarginine) level in human MDA-MB-468 cells at 0.5 uM measured after 72 hrs by Western blot analysis; type: functional, cell-based
MDA-MB-468 [9] = assay: Inhibition of sDMA (symmetric dimethylarginine) level in human MDA-MB-468 cells at 5 uM measured after 72 hrs by Western blot analysis; type: functional, cell-based
MDA-MB-468 [10] = assay: Inhibition of sDMA (symmetric dimethylarginine) level in human MDA-MB-468 cells at 2 uM measured after 7 days by Western blot analysis; type: functional, cell-based; conditions: time 7.0 day
MCF-10A [11] = assay: PROTAC activity at MEP50/VHL in human MCF-10A cells assessed as degradation at 0.5 to 5 uM after 3 days by Western blot analysis; type: cell-based; conditions: dose 0.5-5 µM, time 3.0 day
[12] = target: T2, von Hippel-Lindau disease tumor suppressor/Methylosome protein WDR77; assay: PROTAC activity at MEP50/VHL in human PNT2 cells assessed as degradation at 0.5 to 5 uM after 3 days by Western blot analysis; type: cell-based; conditions: dose 0.5-5 µM, time 3.0 day
[13] = PROTAC activity at PRMT5/VHL in human PNT2 cells assessed as degradation at 0.5 to 5 uM after 3 days by Western blot analysis; conditions: dose 0.5-5 µM, time 3.0 day
[14] = target: T1, von Hippel-Lindau disease tumor suppressor/Protein arginine N-methyltransferase 5; assay: PROTAC activity at PRMT5/VHL in human MCF-10A cells assessed as degradation at 0.5 to 5 uM after 3 days by Western blot analysis; type: cell-based; conditions: dose 0.5-5 µM, time 3.0 day
[15] = target: T2, von Hippel-Lindau disease tumor suppressor/Methylosome protein WDR77; assay: PROTAC activity at MEP50/VHL in human MDA-MB-468 cells assessed as degradation measured at 0.5 to 5 uM after 24 hrs by Western blot analysis; type: cell-based; conditions: dose 0.5-5 µM
[16] = target: T1, von Hippel-Lindau disease tumor suppressor/Protein arginine N-methyltransferase 5; assay: PROTAC activity at PRMT5/VHL in human MDA-MB-468 cells assessed as degradation measured at 0.5 to 5 uM after 24 hrs by Western blot analysis; type: cell-based; conditions: dose 0.5-5 µM
MCF-10A [17] = assay: Cytotoxicity against human MCF10A cells assessed as cell viability up to 15 uM measured after 5 days by CCK-8 assay; type: toxicity, cell-based; conditions: 120 h, time 5 day
[18] = target: T2, von Hippel-Lindau disease tumor suppressor/Methylosome protein WDR77; assay: PROTAC activity at MEP50/VHL in human MDA-MB-468 cells assessed as maximal degradation at 5 uM measured after 72 hrs by Western blot analysis relative to control; type: cell-based
[19] = target: Protein arginine N-methyltransferase 5 (Homo sapiens, UniProt O14744); assay: Inhibition of PRMT5 (unknown origin) using S-adenosylmethionine (SAM) using as substrate preincubated for 30 mins followed by substrate addition measured after 60 mins by microplate reader
[20] = target: T1, von Hippel-Lindau disease tumor suppressor/Protein arginine N-methyltransferase 5; assay: PROTAC activity at PRMT5/VHL in human MDA-MB-468 cells assessed as maximal degradation at 5 uM measured after 72 hrs by Western blot analysis relative to control; type: cell-based
[21] = target: T1, von Hippel-Lindau disease tumor suppressor/Protein arginine N-methyltransferase 5; assay: PROTAC activity at PRMT5/VHL in human MDA-MB-468 cells assessed as degradation at 2 uM measured up to 12 hrs by Western blot analysis; type: cell-based
[22] = target: T2, von Hippel-Lindau disease tumor suppressor/Methylosome protein WDR77; assay: PROTAC activity at MEP50/VHL in human MDA-MB-468 cells assessed as degradation at 2 uM measured up to 48 hrs by Western blot analysis; type: cell-based
[23] = target: T2, von Hippel-Lindau disease tumor suppressor/Methylosome protein WDR77; assay: PROTAC activity at MEP50/VHL in human MCF7 cells assessed as degradation at 0.5 uM after 3 days by Western blot analysis; type: cell-based; conditions: time 3.0 day
[24] = target: T1, von Hippel-Lindau disease tumor suppressor/Protein arginine N-methyltransferase 5; assay: PROTAC activity at PRMT5/VHL in human MCF7 cells assessed as degradation at 0.5 uM after 3 days by Western blot analysis; type: cell-based; conditions: time 3.0 day
[25] = target: T1, von Hippel-Lindau disease tumor suppressor/Protein arginine N-methyltransferase 5; assay: PROTAC activity at PRMT5/VHL in human MCF7 cells assessed as degradation at 5 uM after 3 days by Western blot analysis; type: cell-based; conditions: time 3.0 day
[26] = target: T2, von Hippel-Lindau disease tumor suppressor/Methylosome protein WDR77; assay: PROTAC activity at MEP50/VHL in human MCF7 cells assessed as degradation at 5 uM after 3 days by Western blot analysis; type: cell-based; conditions: time 3.0 day

T1 sequence (O14744 whole entry, looked up): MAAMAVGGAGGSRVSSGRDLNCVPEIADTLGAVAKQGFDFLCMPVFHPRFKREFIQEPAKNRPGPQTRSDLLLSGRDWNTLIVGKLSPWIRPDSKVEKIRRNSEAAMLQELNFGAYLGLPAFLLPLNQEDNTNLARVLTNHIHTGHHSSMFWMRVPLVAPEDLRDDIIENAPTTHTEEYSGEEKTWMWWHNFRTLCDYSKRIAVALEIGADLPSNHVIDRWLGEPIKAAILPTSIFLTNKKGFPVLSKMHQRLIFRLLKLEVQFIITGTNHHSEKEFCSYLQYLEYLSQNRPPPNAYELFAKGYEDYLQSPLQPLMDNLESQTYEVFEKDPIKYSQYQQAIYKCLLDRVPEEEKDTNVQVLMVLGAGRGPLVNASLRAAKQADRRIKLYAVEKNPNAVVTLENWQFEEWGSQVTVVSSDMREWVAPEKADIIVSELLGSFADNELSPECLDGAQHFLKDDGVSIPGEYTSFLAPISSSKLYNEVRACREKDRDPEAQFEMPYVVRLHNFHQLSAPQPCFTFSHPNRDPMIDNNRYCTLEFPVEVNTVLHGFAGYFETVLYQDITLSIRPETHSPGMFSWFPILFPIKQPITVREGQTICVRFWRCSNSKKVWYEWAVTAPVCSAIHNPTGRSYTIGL
T1 sequence (P40337 whole entry, looked up): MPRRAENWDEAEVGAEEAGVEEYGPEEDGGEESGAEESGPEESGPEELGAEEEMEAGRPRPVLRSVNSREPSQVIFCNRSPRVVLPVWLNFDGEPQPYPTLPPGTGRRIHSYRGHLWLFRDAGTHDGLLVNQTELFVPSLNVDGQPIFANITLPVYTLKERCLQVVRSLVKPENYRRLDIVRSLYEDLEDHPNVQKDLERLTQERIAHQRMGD
T2 sequence (P40337 whole entry, looked up): as above
T2 sequence (Q9BQA1 whole entry, looked up): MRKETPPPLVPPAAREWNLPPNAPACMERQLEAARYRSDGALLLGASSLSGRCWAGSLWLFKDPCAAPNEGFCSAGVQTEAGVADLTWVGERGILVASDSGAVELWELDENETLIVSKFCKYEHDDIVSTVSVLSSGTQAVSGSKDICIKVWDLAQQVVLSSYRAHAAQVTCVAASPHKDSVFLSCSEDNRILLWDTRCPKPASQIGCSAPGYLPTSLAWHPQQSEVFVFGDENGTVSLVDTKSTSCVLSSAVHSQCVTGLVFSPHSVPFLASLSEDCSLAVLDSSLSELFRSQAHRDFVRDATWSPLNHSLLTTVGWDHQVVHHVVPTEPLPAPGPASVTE
Chain of Protein arginine N-methyltransferase 5 (O14744 whole entry): as the sequence (O14744 whole entry, looked up) above

SMILES	GI50 (MDA-MB-468 [1]) [µM]	Activity [2]	Activity [3]	Activity [4]	Activity [5]	Activity [6]	Activity [7]	other results
Cc1ncsc1-c1ccc([C@H](CC(=O)NCCOCCOCCOCCOCCOCCC(=O)N2CCC(Nc3cc(C(=O)NC[C@H](O)CN4CCc5ccccc5C4)ncn3)CC2)NC(=O)[C@@H]2C[C@H](O)CN2C(=O)[C@@H](NC(=O)C2(F)CC2)C(C)(C)C)cc1	9.9	inactive	inactive	inactive	inactive	inactive	inactive	
Cc1ncsc1-c1ccc([C@H](CC(=O)NCCOCCOCCOCCOCCOCCC(=O)N2CCC(Nc3cc(C(=O)NC[C@H](O)CN4CCCCC4)ncn3)CC2)NC(=O)[C@@H]2C[C@@H](O)CN2C(=O)[C@@H](NC(=O)C2(F)CC2)C(C)(C)C)cc1	> 20	inactive	inactive	inactive	inactive	inactive	inactive	
O=C(NC[C@H](O)CN1CCc2ccccc2C1)c1cc(NC2COC2)ncn1	0.23	inactive	inactive		inactive		inactive	inhibition (MDA-MB-468 [8]): Active; inhibition (MDA-MB-468 [9]): Active; inhibition (MDA-MB-468 [10]): Active; Compound Inhibited Greater Extent Than Ms4322
O=C1CCC(N2C(=O)c3ccc(NCCCCCCCCCC(=O)N4CCC(Nc5cc(C(=O)NC[C@H](O)CN6CCc7ccccc7C6)ncn5)CC4)cc3C2=O)C(=O)N1 (some centres undefined)								Activity (MCF-10A [11]): 50%; Activity [12]: 50%; Activity [13]: 50%; Activity [14]: 50%; Activity [15]: inactive; Activity [16]: inactive; Activity (MCF-10A [17]): Toxic
Cc1ncsc1-c1ccc([C@H](C)NC(=O)[C@@H]2C[C@@H](O)CN2C(=O)[C@@H](NC(=O)COCCOCCOCCOCCOCC(=O)N2CC(Nc3cc(C(=O)NC[C@H](O)CN4CCc5ccccc5C4)ncn3)C2)C(C)(C)C)cc1	> 20							Activity [18]: 50%; IC50 [19]: 0.69 µM; Activity [20]: 50%; Activity [21]: Active; Activity [22]: inactive; Activity [23]: Active; Activity [24]: Active; Activity [25]: Active; Activity [26]: Active

Source: ChEMBL document CHEMBL6109159, “Discovery of a Potent and Selective Protein Arginine Methyltransferase 5 (PRMT5) PROTAC Degrader” (J Med Chem, 2025)
